Assay results reported in patent US20250042872A1, “NOVEL SALT OF 1-SULFONYL PYRROLE DERIVATIVE, METHOD FOR PREPARING SAME, AND PHARMACEUTICAL COMPOSITION INCLUDING SAME” (ILDONG PHARMACEUTICAL CO., LTD., priority 2021, published 2025).
Values after ≈ are worked out from the molar mass of the structure shown. Counter-ions that a name gives are not always drawn. Like-named read-outs stand apart in the source and are kept apart here.

Experiments:
Assay type in all cases: physicochemical
[1] = Evaluation of drug stability under stress conditions (high temperature open condition 60° C.), XRPD and HPLC; details: 60° C. open; for stability under harsh conditions (in words): up to week 2; for HPLC peak RT 10.063 min, RRT 1.00 (main peak): in %
Procedure: 10 mg and 40 mg of the free base and the hydrochloride salt of 1-(5-(2-fluorophenyl)-4-methoxy-1-((6-methoxypyridin-3-yl)sulfonyl)-1H-pyrrole-3-yl)-N-methylmethanamine were weighed into each vial and stored under stress conditions to investigate stability.
The stress conditions are as follows:
High temperature open condition: 60° C.;
The bottle neck of the vial was wrapped with aluminum foil with pinholes to avoid contamination, and the samples were analyzed by XRPD and HPLC at the onset (day 0), week 1 and week 2.

[2] = Evaluation of solubility in biorelevant media (water, SGF, FaSSIF, FeSSIF), HPLC; details: for Solubility-1 h Concentration / Solubility-24 h Concentration / solubility at 1 h / solubility at 24 h: 37° C.; for solubility at 1 h / solubility at 24 h: 37 °C, thermodynamic from solid; for solubility at 1 h: read-out: Solubility-1 h Concentration; for solubility at 24 h: read-out: Solubility-24 h Concentration
Procedure: Solubility in biorelevant media, such as SGF, FeSSIF, and FaSSIF was confirmed with respect to the free base and the hydrochloride salt, succinate salt and L-tartrate salt of 1-(5-(2-fluorophenyl)-4-methoxy-1-((6-methoxypyridin-3-yl)sulfonyl)-1H-pyrrole-3-yl)-N-methylmethanamine that was confirmed through the salt screening analysis result.
Buffers for the biorelevant media were prepared as follows.
Water: Laboratory Milli-Q purified water.
SGF (Stimulated Gastric Fluid): 2.0 g of sodium chloride and 7 mL of hydrochloric acid dissolved in 1000 mL of water were used.
FaSSIF (Fasted State Simulated Intestinal Fluid): A commercial product purchased from Bio-Relevant Company and manufactured according to instructions was used.
FeSSIF (Fed State Simulated Intestinal Fluid): A commercial product purchased from Bio-Relevant Company and prepared according to instructions was used.
For the experiment, about 10 mg of a compound was weighed into each glass vial and then added with 1 mL of a medium (final concentration of 10 mg/mL). Then, the sample was continuously stirred in a magnetic stirrer at 37° C. at a speed of 200 rpm. After stirring for 1 hour and 24 hours, 0.5 mL of the sample solution was transferred to a 1.5 mL centrifuge tube and centrifuged at 12,000 rpm for 5 minutes. The supernatant was diluted with suitable methanol and analyzed by HPLC.
The free acid was selected as a standard sample to quantify the solubility, and about 10 mg of the free acid was weighed into a 25 mL flask and dissolved in methanol to the […].

[3] = Measurement of hygroscopicity by dynamic vapor sorption (DVS); details: FIGS. 22 and 23
Procedure: Using DVS intrinsic manufactured by SMS Co., Ltd, about 20 mg of the sample was tested for water sorption/desorption profiles at 25° C. under a 0%˜95%˜0% relative humidity (RH) cycle using the following parameters. • Temperature: T=25° C. • Equilibrium: dm/dt: 0.01%/min. • Range of RH (%) measurement step: 0%˜95%˜0%; RH(%) measurement step: 5%
Using the dynamic vapor sorption (DVS) test method described above, the hygroscopicity was measured for the hydrochloride salt prepared in Example 1 and the L-tartrate salt prepared in Example 8, and the results thereof were shown in FIGS. 22 and 23.

[4] = SGF, simulated gastric fluid, SGF

Assay % ([1]; onset (day 0)) | stability under harsh conditions (in words) [1] | Assay % ([1]; week 1) | Solubility-1 h Concentration ([2]; FaSSIF) | Solubility-24 h Concentration ([2]; FaSSIF) | solubility at 1 h ([2]; FeSSIF, fessif, FeSSIF) | solubility at 24 h ([2]; FeSSIF, fessif, FeSSIF) | solubility at 1 h [2, 4] | solubility at 24 h [2, 4] | solubility at 1 h ([2]; water, water, water) | solubility at 24 h ([2]; water, water, water) | hygroscopicity (in words) [3] | solubility at 1 h ([2]; FaSSIF, fassif, FaSSIF) | solubility at 24 h ([2]; FaSSIF, fassif, FaSSIF) | Compound | also measured
100.50% | excellent stability | 106.14% | 9710 µg/mL | 5920 µg/mL | 4450 µg/mL | 4370 µg/mL | > 10000 µg/mL | > 10000 µg/mL | > 10000 µg/mL | > 10000 µg/mL | very low hygroscopicity | – | – | CNCc1cn(S(=O)(=O)c2ccc(OC)nc2)c(-c2ccccc2F)c1OC [Hydrochloride salt, hydrochloride salt of 1-(5-(2-fluorophenyl)-4-methoxy-1-((6-methoxypyridin-3-yl)sulfonyl)-1H-pyrrole-3-yl)-N-methylmethanamine] | solubility in FaSSIF (in words) ([2]; fasted state simulated intestinal fluid): very good
100.00% | high impurity content | 87.44% | 1440 µg/mL (≈ 3.55 mM) | 1440 µg/mL (≈ 3.55 mM) | – | – | – | – | – | – | – | – | – | CNCc1cn(S(=O)(=O)c2ccc(OC)nc2)c(-c2ccccc2F)c1OC [Free base, 1-(5-(2-fluorophenyl)-4-methoxy-1-((6-methoxypyridin-3-yl)sulfonyl)-1H-pyrrole-3-yl)-N-methylmethanamine] | HPLC peak RRT 1.07 ([1]; onset (day 0)): 0.66%; HPLC peak RT 10.063 min, RRT 1.00 (main peak) ([1]; onset (day 0)): 93.15; HPLC peak RRT 1.07 ([1]; week 1): 0.57%; HPLC peak RT 6.797 min, RRT 0.68 ([1]; week 1): 0.43%; HPLC peak RT 7.563 min, RRT 0.75 ([1]; week 1): 1%; HPLC peak RT 10.277 min, RRT 1.02 ([1]; week 1): 9.95%; HPLC peak RRT 0.93 ([1]; week 2): 0.14%; HPLC peak RT 10.063 min, RRT 1.00 (main peak) ([1]; week 2): 65.00; Solubility-1 h Concentration ([2]; FeSSIF): 4570 µg/mL (≈ 11.3 mM); Solubility-24 h Concentration ([2]; FeSSIF): 4770 µg/mL (≈ 11.8 mM); Solubility-1 h Concentration ([2]; SGF): >10000 µg/mL; Solubility-24 h Concentration ([2]; SGF): >10000 µg/mL; Solubility-1 h Concentration ([2]; water): 8560 µg/mL (≈ 21.1 mM); Solubility-24 h Concentration ([2]; water): 8630 µg/mL (≈ 21.3 mM)
– | – | – | – | – | 4550 µg/mL | 4540 µg/mL | > 10000 µg/mL | > 10000 µg/mL | > 10000 µg/mL | > 10000 µg/mL | very low hygroscopicity | 8160 µg/mL | > 10000 µg/mL | CNCc1cn(S(=O)(=O)c2ccc(OC)nc2)c(-c2ccccc2F)c1OC.O=C(O)C(O)C(O)C(=O)O [L-tartrate salt, L-tartrate salt of 1-(5-(2-fluorophenyl)-4-methoxy-1-((6-methoxypyridin-3-yl)sulfonyl)-1H-pyrrole-3-yl)-N-methylmethanamine] | –
– | – | – | – | – | 4780 µg/mL | 4720 µg/mL | > 10000 µg/mL | > 10000 µg/mL | > 10000 µg/mL | > 10000 µg/mL | – | 8100 µg/mL | > 10000 µg/mL | CNCc1cn(S(=O)(=O)c2ccc(OC)nc2)c(-c2ccccc2F)c1OC.O=C(O)CCC(=O)O [Succinate salt, succinate salt of 1-(5-(2-fluorophenyl)-4-methoxy-1-((6-methoxypyridin-3-yl)sulfonyl)-1H-pyrrole-3-yl)-N-methylmethanamine] | –
